# Source: patent US6770596B1, “Fused tricyclic compounds, process for their preparation, and herbicidal compositions containing them” (Ishihara Sangyo Kaisha Ltd., priority 2002, dated 2004)
# Legend:
# Type in all cases: in vivo
# [1] = tested on: redroot pigweed (Amaranthus retroflexus, AMR); assay: Pre-emerge test, redroot pigweed; conditions: 250 g ai/ha, 14 days after application, rating scale 0-100 (0 no damage, 100 complete death)
# In short: (§1)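 Using a track sprayer with flat fan nozzle, acetone solutions were applied at 8–1000 g ai/ha to sandy loam pots sown one day before. Plant injury was rated visually 0–100 after 14 days.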
# [2] = tested on: velvetleaf (Abutilon theophrasti, ABT); assay: Pre-emerge test, velvetleaf; conditions: 250 g ai/ha, 14 days after application, rating scale 0-100 (0 no damage, 100 complete death)
# In short: as §1
# [3] = tested on: sicklepod (Cassia obtusifolia, CAO); assay: Pre-emerge test, sicklepod; conditions: 250 g ai/ha, 14 days after application, rating scale 0-100 (0 no damage, 100 complete death)
# In short: as §1
# [4] = tested on: ivyleaf morningglory (Ipomoea hederacea, IPH); assay: Pre-emerge test, ivyleaf morningglory; conditions: 250 g ai/ha, 14 days after application, rating scale 0-100 (0 no damage, 100 complete death)
# In short: as §1
# [5] = tested on: lambsquarters (Chenopodium album, CHA); assay: Pre-emerge test, lambsquarters; conditions: 250 g ai/ha, 14 days after application, rating scale 0-100 (0 no damage, 100 complete death)
# In short: as §1
# [6] = tested on: common ragweed (Ambrosia artemisiifolia L., AML); assay: Pre-emerge test, common ragweed; conditions: 250 g ai/ha, 14 days after application, rating scale 0-100 (0 no damage, 100 complete death)
# In short: as §1
# [7] = tested on: cocklebur (Xanthium strumariunt, XAS); assay: Pre-emerge test, cocklebur; conditions: 250 g ai/ha, 14 days after application, rating scale 0-100 (0 no damage, 100 complete death)
# In short: as §1
# [8] = tested on: green foxtail (Setaria viridis, SEV); assay: Pre-emerge test, green foxtail; conditions: 250 g ai/ha, 14 days after application, rating scale 0-100 (0 no damage, 100 complete death)
# In short: as §1
# [9] = tested on: barnyardgrass (Echinachloa crus-galli, ECC); assay: Pre-emerge test, barnyardgrass; conditions: 250 g ai/ha, 14 days after application, rating scale 0-100 (0 no damage, 100 complete death)
# In short: as §1
# [10] = tested on: johnsongrass (Sorghum halepense, SOH); assay: Pre-emerge test, johnsongrass; conditions: 250 g ai/ha, 14 days after application, rating scale 0-100 (0 no damage, 100 complete death)
# In short: as §1
# [11] = tested on: large crabgrass (Digitaria sanguinalis, DIS); assay: Pre-emerge test, large crabgrass; conditions: 250 g ai/ha, 14 days after application, rating scale 0-100 (0 no damage, 100 complete death)
# In short: as §1
# [12] = tested on: field corn (Zea mays L., var. Dekalb 535, CORN); assay: Pre-emerge test, crop damage field corn; conditions: pre-emerge, 250 g ai/ha, 14 days after application, rating scale 0-100 (0 no damage, 100 complete death)
# In short: (§2)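 Read-out is a visual 0–100 phytotoxicity rating taken 14 days after treatment, where 100 means all plants dead. Compounds were applied pre-emergence in acetone by track sprayer at rates from 8 to 1000 g ai/ha onto pots sown the previous day.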
# [13] = tested on: soybean (Glycine max L., var. Pella 86, SOY); assay: Pre-emerge test, crop damage soybean; conditions: pre-emerge, 250 g ai/ha, 14 days after application, rating scale 0-100 (0 no damage, 100 complete death)
# In short: as §2
# [14] = tested on: upland rice (Oryza sp., var.Tebonnet, RICE); assay: Pre-emerge test, crop damage upland rice; conditions: pre-emerge, 250 g ai/ha, 14 days after application, rating scale 0-100 (0 no damage, 100 complete death)
# In short: as §2
# [15] = tested on: wheat (Triticum aestivum); assay: Pre-emerge test, crop damage wheat; conditions: pre-emerge, 250 g ai/ha, 14 days after application, rating scale 0-100 (0 no damage, 100 complete death)
# In short: as §2
# [16] = tested on: redroot pigweed (Amaranthus retroflexus, AMR); assay: Post-emerge test, redroot pigweed; conditions: 250 g ai/ha, 14 days after application, rating scale 0-100 (0 no damage, 100 complete death)
# In short: (§3)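 Under greenhouse conditions, 2-3 leaf plants got a single spray of 8-1000 g ai/ha in acetone with 0.25% v/v non-ionic surfactant. Phytotoxicity scoring on the 0-100 scale followed 14 days later.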
# [17] = tested on: velvetleaf (Abutilon theophrasti, ABT); assay: Post-emerge test, velvetleaf; conditions: 250 g ai/ha, 14 days after application, rating scale 0-100 (0 no damage, 100 complete death)
# In short: as §3
# [18] = tested on: sicklepod (Cassia obtusifolia, CAO); assay: Post-emerge test, sicklepod; conditions: 250 g ai/ha, 14 days after application, rating scale 0-100 (0 no damage, 100 complete death)
# In short: as §3
# [19] = tested on: ivyleaf morningglory (Ipomoea hederacea, IPH); assay: Post-emerge test, ivyleaf morningglory; conditions: 250 g ai/ha, 14 days after application, rating scale 0-100 (0 no damage, 100 complete death)
# In short: as §3
# [20] = tested on: lambsquarters (Chenopodium album, CHA); assay: Post-emerge test, lambsquarters; conditions: 250 g ai/ha, 14 days after application, rating scale 0-100 (0 no damage, 100 complete death)
# In short: as §3
# [21] = tested on: common ragweed (Ambrosia artemisiifolia L., AML); assay: Post-emerge test, common ragweed; conditions: 250 g ai/ha, 14 days after application, rating scale 0-100 (0 no damage, 100 complete death)
# In short: as §3
# [22] = tested on: cocklebur (Xanthium strumariunt, XAS); assay: Post-emerge test, cocklebur; conditions: 250 g ai/ha, 14 days after application, rating scale 0-100 (0 no damage, 100 complete death)
# In short: as §3
# [23] = tested on: green foxtail (Setaria viridis, SEV); assay: Post-emerge test, green foxtail; conditions: 250 g ai/ha, 14 days after application, rating scale 0-100 (0 no damage, 100 complete death)
# In short: as §3
# [24] = tested on: barnyardgrass (Echinachloa crus-galli, ECC); assay: Post-emerge test, barnyardgrass; conditions: 250 g ai/ha, 14 days after application, rating scale 0-100 (0 no damage, 100 complete death)
# In short: as §3
# [25] = tested on: johnsongrass (Sorghum halepense, SOH); assay: Post-emerge test, johnsongrass; conditions: 250 g ai/ha, 14 days after application, rating scale 0-100 (0 no damage, 100 complete death)
# In short: as §3
# [26] = tested on: large crabgrass (Digitaria sanguinalis, DIS); assay: Post-emerge test, large crabgrass; conditions: 250 g ai/ha, 14 days after application, rating scale 0-100 (0 no damage, 100 complete death)
# In short: as §3
# [27] = tested on: field corn (Zea mays L., var. Dekalb 535, CORN); assay: Post-emerge test, crop damage field corn; conditions: post-emerge, 250 g ai/ha, 14 days after application, rating scale 0-100 (0 no damage, 100 complete death)
# In short: as §3
# [28] = tested on: soybean (Glycine max L., var. Pella 86, SOY); assay: Post-emerge test, crop damage soybean; conditions: post-emerge, 250 g ai/ha, 14 days after application, rating scale 0-100 (0 no damage, 100 complete death)
# In short: as §3
# [29] = tested on: upland rice (Oryza sp., var.Tebonnet, RICE); assay: Post-emerge test, crop damage upland rice; conditions: post-emerge, 250 g ai/ha, 14 days after application, rating scale 0-100 (0 no damage, 100 complete death)
# In short: as §3
# [30] = tested on: wheat (Triticum aestivum); assay: Post-emerge test, crop damage wheat; conditions: post-emerge, 250 g ai/ha, 14 days after application, rating scale 0-100 (0 no damage, 100 complete death)
# In short: as §3
Structure (SMILES),Pre-emerge Herbicidal Activity AMR (phytotoxicity rating) [1],Pre-emerge Herbicidal Activity ABT (phytotoxicity rating) [2],Pre-emerge Herbicidal Activity CAO (phytotoxicity rating) [3],Pre-emerge Herbicidal Activity IPH (phytotoxicity rating) [4],Pre-emerge Herbicidal Activity CHA (phytotoxicity rating) [5],Pre-emerge Herbicidal Activity AML (phytotoxicity rating) [6],Pre-emerge Herbicidal Activity XAS (phytotoxicity rating) [7],Pre-emerge Herbicidal Activity SEV (phytotoxicity rating) [8],Pre-emerge Herbicidal Activity ECC (phytotoxicity rating) [9],Pre-emerge Herbicidal Activity SOH (phytotoxicity rating) [10],Pre-emerge Herbicidal Activity DIS (phytotoxicity rating) [11],Pre-emerge crop damage CORN (phytotoxicity rating) [12],Pre-emerge crop damage SOY (phytotoxicity rating) [13],Pre-emerge crop damage RICE (phytotoxicity rating) [14],Pre-emerge crop damage WHEAT (phytotoxicity rating) [15],Post-emerge Herbicidal Activity AMR (phytotoxicity rating) [16],Post-emerge Herbicidal Activity ABT (phytotoxicity rating) [17],Post-emerge Herbicidal Activity CAO (phytotoxicity rating) [18],Post-emerge Herbicidal Activity IPH (phytotoxicity rating) [19],Post-emerge Herbicidal Activity CHA (phytotoxicity rating) [20],further results
Cn1nc(-c2c(F)cc3c4c2NC(=O)C(c2ccccc2)N4C(=O)CO3)c(Cl)c1C(F)(F)F (stereo not drawn) [1-21],100,100,60,95,100,98,40,98,75,85,99,0,35,0,20,95,75,5,75,99,Post-emerge Herbicidal Activity AML (phytotoxicity rating) [21]: 75; Post-emerge Herbicidal Activity XAS (phytotoxicity rating) [22]: 80; Post-emerge Herbicidal Activity SEV (phytotoxicity rating) [23]: 50; Post-emerge Herbicidal Activity ECC (phytotoxicity rating) [24]: 25; Post-emerge Herbicidal Activity SOH (phytotoxicity rating) [25]: 0; Post-emerge Herbicidal Activity DIS (phytotoxicity rating) [26]: 0; Post-emerge crop damage CORN (phytotoxicity rating) [27]: 10; Post-emerge crop damage SOY (phytotoxicity rating) [28]: 25; Post-emerge crop damage RICE (phytotoxicity rating) [29]: 55; Post-emerge crop damage WHEAT (phytotoxicity rating) [30]: 45
"C[C@@H]1Oc2cc(F)c(-c3nn(C)c(C(F)(F)F)c3Cl)c3c2N(CC(=O)N3)C1=O [1-49, 8-[4-Chloro-1-methyl-5-(trifluoromethyl)-1H-pyrazol-3-yl]-9-fluoro-2-S-methyl-5H-pyrazino[1,2,3-de]-1,4-benzoxazine-3,6(2H, 7H)-dione]",100,100,100,100,100,100,85,100,100,100,100,70,50,70,60,100,100,100,100,100,Post-emerge Herbicidal Activity AML (phytotoxicity rating) [21]: 80; Post-emerge Herbicidal Activity XAS (phytotoxicity rating) [22]: 100; Post-emerge Herbicidal Activity SEV (phytotoxicity rating) [23]: 100; Post-emerge Herbicidal Activity ECC (phytotoxicity rating) [24]: 100; Post-emerge Herbicidal Activity SOH (phytotoxicity rating) [25]: 65; Post-emerge Herbicidal Activity DIS (phytotoxicity rating) [26]: 99; Post-emerge crop damage CORN (phytotoxicity rating) [27]: 35; Post-emerge crop damage SOY (phytotoxicity rating) [28]: 80; Post-emerge crop damage RICE (phytotoxicity rating) [29]: 85; Post-emerge crop damage WHEAT (phytotoxicity rating) [30]: 50
CC1Oc2cc(F)c(-c3nn(C)c(C(F)(F)F)c3Cl)c3c2N(C1=O)C(C)C(=O)N3 (mixture of isomers) [1-50],100,100,99,90,100,100,75,100,99,100,99,85,60,50,25,100,100,75,100,100,Post-emerge Herbicidal Activity AML (phytotoxicity rating) [21]: 70; Post-emerge Herbicidal Activity XAS (phytotoxicity rating) [22]: 100; Post-emerge Herbicidal Activity SEV (phytotoxicity rating) [23]: 70; Post-emerge Herbicidal Activity ECC (phytotoxicity rating) [24]: 99; Post-emerge Herbicidal Activity SOH (phytotoxicity rating) [25]: 55; Post-emerge Herbicidal Activity DIS (phytotoxicity rating) [26]: 70; Post-emerge crop damage CORN (phytotoxicity rating) [27]: 20; Post-emerge crop damage SOY (phytotoxicity rating) [28]: 75; Post-emerge crop damage RICE (phytotoxicity rating) [29]: 65; Post-emerge crop damage WHEAT (phytotoxicity rating) [30]: 35
